How the values were obtained:
CRTh2 receptor [1] = target: T1, CRTh2 receptor (Homo sapiens, UniProt Q9Y5Y4); experiment: CRTh2 cAMP functional assay; assay type: cell-based; set-up: expressed in transfected cells; host or cells: CHO cells; conditions: CHO cells stably transfected with CRTh2; 10 nM PGD2 and 5 μM forskolin; cAMP Alphascreen
T1 sequence (Q9Y5Y4 1-395): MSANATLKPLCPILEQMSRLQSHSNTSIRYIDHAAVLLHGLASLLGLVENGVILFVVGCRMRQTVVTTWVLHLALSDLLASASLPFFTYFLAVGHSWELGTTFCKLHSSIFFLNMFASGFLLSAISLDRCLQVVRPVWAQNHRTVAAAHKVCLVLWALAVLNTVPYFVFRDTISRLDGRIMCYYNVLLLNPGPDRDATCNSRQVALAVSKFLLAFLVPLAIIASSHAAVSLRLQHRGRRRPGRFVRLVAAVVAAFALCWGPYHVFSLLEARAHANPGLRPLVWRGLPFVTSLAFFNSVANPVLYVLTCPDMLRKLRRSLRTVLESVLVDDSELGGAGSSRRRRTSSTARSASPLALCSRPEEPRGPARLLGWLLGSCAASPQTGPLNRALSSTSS
Experimental: CRTh2 cAMP Assay Protocol
Test compounds are prepared in assay stimulation buffer/DMSO and 5 μL/well is added to an assay plate (384-well white opti-plate).
CHO cells stably transfected with the CRTh2 receptor are prepared (dissociated from a cell culture flask and washed in PBS) to a concentration of 4×10^6/mL in assay stimulation buffer and added to the assay plate (10 μL/well).
The assay plate is incubated at room temperature on a shaker for 15 minutes.
A mix of agonist (10 nM PGD2) and 5 μM forskolin is prepared in assay stimulation buffer and added to the assay plate (5 μL/well).
In addition, a cAMP standard is serially diluted in assay stimulation buffer and added to separate empty wells on the assay plate (20 μL/well).
The assay plate is incubated at room temperature on a shaker for 60 minutes.
A cell lysis mix (lysis buffer containing Alphascreen™ donor beads and biotinylated cAMP) is prepared under darkened conditions 60 minutes prior to addition. Alphascreen™ acceptor beads are added to the lysis mix after 60 minutes. […]
The assay plate is sealed with Topseal-S™ and incubated in the dark at room temperature on a shaker for 45 minutes. The plate is then counted using a Packard Fusion™ instrument.
The resulting counts per minute are converted to nM cAMP by using the prepared cAMP standard curve. IC50 values are then determined using Prism™ software.

CRTh2 receptor [2] = target: T1, CRTh2 receptor; experiment: Scintillation Proximity Assay (SPA) binding assay, 3H PGD2; set-up: expressed in transfected cells; host or cells: K562 or CHO cells, membranes; conditions: membranes from K562 or CHO cells stably transfected with human CRTh2; 3H prostaglandin D2
Experimental: Scintillation Proximity Assay (SPA) protocol
Membranes are prepared from K562 or Chinese Hamster Ovary (CHO) cells stably transfected with human CRTh2 receptors.
The assay is performed in a 96-well U-bottomed polypropylene plate in a final volume of 100 μL and the components of the assay are added as follows: test compound in DMSO/assay buffer (25 μL), ^3H prostaglandin D2 (PGD2) (25 μL) and CRTh2 membrane fragments (50 μL). The assay is incubated at ambient temperature with shaking for 60 minutes, then harvested on to filter plates. The plate is dried for 2 hours, prior to addition of Micro-Scint 20M (50 μL) and sealing with TopSeal-S™. Plates are then counted using a Packard Top Count instrument, each well being counted for 20 minutes. Ki values are determined using Sigma Plot™ software.

IC50 (CRTh2 receptor [1]) [µM] | Ki (CRTh2 receptor [2]) [µM] | Compound
0.068 | – | CCOC(=O)COc1ccc(Cl)cc1Cc1cc(Cl)ccc1OCC(=O)O [Example 2, [4-chloro-2-(5-chloro-2-ethoxycarbonylmethoxy-benzyl)-phenoxy]-acetic acid]
0.052 | 0.058 | CC(C)(Oc1ccc(Cl)cc1Cc1cc(Cl)ccc1OCC(=O)O)C(=O)O [Example 13, 2-[2-(2-carboxymethoxy-5-chloro-benzyl)-4-chloro-phenoxy]-2-methyl-propionic acid]

Source: patent US20080312322A1, “Organic Compounds” (priority 2005, published 2008)
